Measurements published in ChEMBL document CHEMBL5352429, “Designed symmetrical β-hairpin peptides for treating multidrug-resistant salmonella typhimurium infections” (Eur J Med Chem, 2022).
Values after ≈ are worked out from the molar mass of the structure shown. Active and inactive are the calls of the source. No cut-off for these calls is given here. Peptide text beside a SMILES is read from it.

How the values were obtained:
[1] = Antibacterial activity against Salmonella paratyphi C CICC 21512 incubated overnight by standard microtiter dilution method; format: functional, Salmonella enterica subsp. enterica serovar Paratyphi C; conditions: Salmonella enterica
[2] = test system: Salmonella enterica subsp. enterica serovar Paratyphi B; experiment: Antibacterial activity against Salmonella paratyphi B CICC 21495 incubated overnight by standard microtiter dilution method; format: functional
Salmonella typhimurium [3] = experiment: Antibacterial activity against Salmonella typhimurium DT104 in the presence of FeCl3 by MH broth based assay; format: functional, Salmonella enterica subsp. enterica serovar Typhimurium; conditions: Salmonella enterica
Salmonella typhimurium [4] = experiment: Antibacterial activity against Salmonella typhimurium CICC 21483 incubated overnight by standard microtiter dilution method; format: functional, Salmonella enterica subsp. enterica serovar Typhimurium; conditions: Salmonella enterica
Enterococcus faecalis = experiment: Antibacterial activity against Enterococcus faecalis ATCC 29212 incubated overnight by standard microtiter dilution method; format: functional
[5] = test system: Staphylococcus epidermidis; experiment: Antibacterial activity against methicillin-resistant Staphylococcus epidermidis ATCC 12228 incubated overnight by standard microtiter dilution method; format: functional
Staphylococcus aureus [6] = experiment: Antibacterial activity against methicillin-resistant Staphylococcus aureus ATCC 43300 incubated overnight by standard microtiter dilution method; format: functional
Salmonella typhimurium [7] = experiment: Antibacterial activity against Salmonella typhimurium DT104 in the presence 50% inactivated mouse serum by MH broth based assay; format: functional, Salmonella enterica subsp. enterica serovar Typhimurium; conditions: Salmonella enterica
RAW264.7 [8] = experiment: Inhibition of LPS-stimulated NO production in mouse RAW264.7 cells incubated for 24 hrs by Griess reagent based analysis; format: functional, cell-based; conditions: dose 1-128 µg/ml
[9] = Cytotoxicity against mouse RAW264.7 cells assessed as cell viability at 128 ug/ml incubated for 24 hrs by MTT assay; format: toxicity, cell-based; conditions: at 128 µg/mL, read-out: Activity
RAW264.7 [10] = experiment: Inhibition of LPS-stimulated IL-8 production in mouse RAW264.7 cells at 1 to 128 ug/ml incubated for 24 hrs by ELISA analysis; format: functional, cell-based; conditions: dose 1-128 µg/ml
Salmonella typhimurium [11] = experiment: Antibacterial activity against Salmonella typhimurium DT104 in the presence of KCl by MH broth based assay; format: functional, Salmonella enterica subsp. enterica serovar Typhimurium; conditions: Salmonella enterica
[12] = Antibacterial activity against Salmonella wandsworth CICC 21504 incubated overnight by standard microtiter dilution method; format: functional, Salmonella enterica subsp. enterica serovar Wandsworth; conditions: Salmonella enterica
[13] = Hemolytic activity in human Red blood cells assessed as hemolysis at 128 ug/ml incubated for 1 hrs by absorbance based microplate reader analysis relative to control; format: toxicity, cell-based, Erythrocyte; conditions: red blood cells (erythrocytes), at 128 µg/mL, read-out: Activity
[14] = Antibacterial activity against Salmonella blockley CICC 21489 incubated overnight by standard microtiter dilution method; format: functional, Salmonella enterica subsp. enterica serovar Blockley; conditions: Salmonella enterica
Salmonella paratyphi = experiment: Antibacterial activity against Salmonella paratyphi A CICC 21501 incubated overnight by standard microtiter dilution method; format: functional, Salmonella enterica subsp. enterica serovar Paratyphi A; conditions: Salmonella enterica
[15] = Antibacterial activity against Salmonella dublin CICC 21497 incubated overnight by standard microtiter dilution method; format: functional, Salmonella enterica subsp. enterica serovar Dublin; conditions: Salmonella enterica
[16] = Antibacterial activity against Salmonella enterica subsp. enterica serovar Choleraesuis ATCC 13312 incubated overnight by standard microtiter dilution method; format: functional
Escherichia coli = experiment: Antibacterial activity against Escherichia coli O157:H7 CICC 21530 incubated overnight by standard microtiter dilution method; format: functional
RAW264.7 [17] = experiment: Inhibition of LPS-stimulated IL-1beta production in mouse RAW264.7 cells at 1 to 128 ug/ml incubated for 24 hrs by ELISA analysis; format: functional, cell-based; conditions: dose 1-128 µg/ml
RAW264.7 [18] = experiment: Inhibition of LPS-stimulated TNF-alpha production in mouse RAW264.7 cells at 1 to 128 ug/ml incubated for 24 hrs by ELISA analysis; format: functional, cell-based; conditions: dose 1-128 µg/ml
Cell membrane = experiment: Disruption of membrane integrity in Salmonella typhimurium DT104 assessed as increase in fluorescence intensity at 0.5 to 2 times of MIC incubated for 15 mins by PI staining based flow cytometric analysis; format: subcellular; conditions: Salmonella enterica subsp. enterica serovar Typhimurium
Salmonella typhimurium [19] = experiment: Antibacterial activity against Salmonella typhimurium DT104 ATCC 700408 incubated overnight by standard microtiter dilution method; format: functional, Salmonella enterica subsp. enterica serovar Typhimurium; conditions: Salmonella enterica
Salmonella typhimurium [20] = experiment: Antibacterial activity against Salmonella typhimurium DT104 in the presence of MgCl2 by MH broth based assay; format: functional, Salmonella enterica subsp. enterica serovar Typhimurium; conditions: Salmonella enterica
Erythrocyte = experiment: Hemolytic activity in human Red blood cells assessed as hemolysis incubated for 1 hrs by absorbance based microplate reader analysis; format: toxicity, cell-based
Salmonella typhimurium [21] = experiment: Antibacterial activity against Salmonella typhimurium DT104 in the presence of CaCl2 by MH broth based assay; format: functional, Salmonella enterica subsp. enterica serovar Typhimurium; conditions: Salmonella enterica
Salmonella enteritidis = experiment: Antibacterial activity against Salmonella enteritidis CICC 21527 incubated overnight by standard microtiter dilution method; format: functional, Salmonella enterica subsp. enterica serovar Enteritidis; conditions: Salmonella enterica
[22] = Antibacterial activity against Salmonella enterica subsp. enterica serovar Choleraesuis CICC 21493 incubated overnight by standard microtiter dilution method; format: functional
Staphylococcus aureus [23] = experiment: Antibacterial activity against Staphylococcus aureus ATCC 29213 incubated overnight by standard microtiter dilution method; format: functional
Salmonella typhimurium [24] = experiment: Antibacterial activity against Salmonella typhimurium CICC 21913 incubated overnight by standard microtiter dilution method; format: functional, Salmonella enterica subsp. enterica serovar Typhimurium; conditions: Salmonella enterica
Salmonella typhimurium [25] = experiment: Antibacterial activity against Salmonella typhimurium DT104 in the presence of NH4Cl by MH broth based assay; format: functional, Salmonella enterica subsp. enterica serovar Typhimurium; conditions: Salmonella enterica
Lipopolysaccharide (LPS) = experiment: Displacement of BODIPY-TR-cadaverine from Salmonella typhimurium LPS assessed as increase in fluorescence intensity by fluorescence spectrophotometric analysis; conditions: Salmonella enterica subsp. enterica serovar Typhimurium; dose 0.25-8 µg/ml
Candida albicans = experiment: Antifungal activity against Candida albicans ATCC 10231 incubated overnight by standard microtiter dilution method; format: functional
Salmonella typhimurium [26] = experiment: Antibacterial activity against Salmonella typhimurium DT104 in the presence of NaCl by MH broth based assay; format: functional, Salmonella enterica subsp. enterica serovar Typhimurium; conditions: Salmonella enterica
Salmonella typhimurium [27] = experiment: Antibacterial activity against Salmonella typhimurium DT104 in the presence 25% inactivated mouse serum by MH broth based assay; format: functional, Salmonella enterica subsp. enterica serovar Typhimurium; conditions: Salmonella enterica
Salmonella typhimurium [28] = experiment: Antibacterial activity against Salmonella typhimurium DT104 infected in mouse RAW264.7 cells assessed as reduction in bacterial cells at 1 times of MIC measured for 180 mins by MH agar based serial dilution method; format: functional, organism-based; conditions: Salmonella enterica subsp. enterica serovar Typhimurium

Row | Structure (SMILES) | MIC [1] [µg/mL] | MIC [2] [µg/mL] | MIC (Salmonella typhimurium [4]) [µg/mL] | MIC (Enterococcus faecalis) [µg/mL] | MIC [5] [µg/mL] | MIC (Staphylococcus aureus [6]) [µg/mL] | MIC [12] [µg/mL] | MIC [14] [µg/mL] | MIC (Salmonella paratyphi) [µg/mL] | MIC [15] [µg/mL] | MIC [16] [µg/mL] | MIC (Escherichia coli) [µg/mL] | MIC (Salmonella typhimurium [19]) [µg/mL] | MIC (Salmonella enteritidis) [µg/mL] | MIC [22] [µg/mL] | MIC (Staphylococcus aureus [23]) [µg/mL] | MIC (Salmonella typhimurium [24]) [µg/mL] | MIC (Candida albicans) [µg/mL] | also measured
1 | CC(C)[C@H](N)C(=O)N[C@@H](CCCCN)C(=O)N[C@H](C(=O)N[C@@H](CCCCN)C(=O)N[C@H](C(=O)N[C@@H](CCCCN)C(=O)N[C@@H](CS)C(=O)N[C@H](C(=O)N[C@@H](CCCCN)C(=O)N[C@@H](CO)C(=O)NCC(=O)N[C@@H](CS)C(=O)N[C@@H](CCCCN)C(=O)N[C@H](C(=O)N[C@@H](CCCCN)C(=O)N[C@H](C(=O)N[C@@H](CCCCN)C(=O)N[C@H](C(N)=O)C(C)C)C(C)C)C(C)C)[C@@H](C)O)C(C)C)C(C)C (H-VKVKVKCTKSGCKVKVKV-NH2) | 2 (≈ 1.02 µM) | 1 (≈ 0.51 µM) | 64 (≈ 32.6 µM) | 4 (≈ 2.04 µM) | 4 (≈ 2.04 µM) | > 128 | 4 (≈ 2.04 µM) | 16 (≈ 8.16 µM) | 2 (≈ 1.02 µM) | 4 (≈ 2.04 µM) | 0.5 (≈ 0.255 µM) | 2 (≈ 1.02 µM) | 32 (≈ 16.3 µM) | 32 (≈ 16.3 µM) | 32 (≈ 16.3 µM) | > 128 | > 128 | 8 (≈ 4.08 µM) | MIC (Salmonella typhimurium [3]): 64 µg/mL; MIC (Salmonella typhimurium [7]): > 128 µg/mL; inhibition (RAW264.7 [8]): Dose-Dependent Effect; viability at 24 h, 128 ug/ml [9]: 39.8%; inhibition (RAW264.7 [10]): Active; MIC (Salmonella typhimurium [11]): 128 µg/mL; hemolysis at 1 h, 128 ug/ml [13]: < 10%; inhibition (RAW264.7 [17]): Active; inhibition (RAW264.7 [18]): Active; Activity (Cell membrane): Active; MIC (Salmonella typhimurium [20]): > 128 µg/mL; MHC (Erythrocyte): > 128 µg/mL; MIC (Salmonella typhimurium [21]): > 128 µg/mL; MIC (Salmonella typhimurium [25]): 64 µg/mL; Activity (Lipopolysaccharide (LPS)): Dose-Dependent Effect; MIC (Salmonella typhimurium [26]): > 128 µg/mL; MIC (Salmonella typhimurium [27]): > 128 µg/mL
2 | CN[C@@H]1[C@H](O[C@H]2[C@H](O[C@H]3[C@H](O)[C@@H](O)[C@H](N=C(N)N)[C@@H](O)[C@@H]3N=C(N)N)O[C@@H](C)[C@]2(O)C=O)O[C@@H](CO)[C@H](O)[C@H]1O [STREPTOMYCIN] | 64 (≈ 110 µM) | 32 (≈ 55 µM) | 32 (≈ 55 µM) | 64 (≈ 110 µM) | 0.25 (≈ 0.43 µM) | 8 (≈ 13.8 µM) | 2 (≈ 3.44 µM) | > 128 | 32 (≈ 55 µM) | 128 (≈ 220 µM) | 64 (≈ 110 µM) | 64 (≈ 110 µM) | 128 (≈ 220 µM) | 16 (≈ 27.5 µM) | 32 (≈ 55 µM) | 4 (≈ 6.88 µM) | 64 (≈ 110 µM) | 128 (≈ 220 µM) | Activity (Salmonella typhimurium [28]): Active
